The values that follow are results of earlier work, collected in US20160185712A1, “PHOTO-ACTIVATED HYDROGELS” (L'OREAL, priority 2014, published 2016).

Each structure is given as a SMILES string.

Take `O=C1c2ccccc2C(=O)c2cc(S(=O)(=O)[O-])ccc21.[Na+]` [anthraquinone-2-sulfonic acid sodium salt]: the water solubility result is “water soluble”.
